Data taken from patent US11000033B2, “Ketone or oxime compound, and herbicide” (NISSAN CHEMICAL CORPORATION, priority 2014, dated 2021).

Experiments:
Format in all cases: in vivo
[1] = system: Scirpus juncoides; test: Test Example 1: herbicidal activity, application before weed generation in submerged conditions (symbol B); conditions: application herbicide amount 320 g/ha
Procedure, shortened: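 Pre-emergence, paddy conditions: emulsifiable formulation diluted in water, dosed onto floodwater (4 cm depth) on sowing day. Alluvial soil; weeds sown mixed; rice transplanted at 2.5-leaf stage. Greenhouse 25–30 °C, 3 wk. Score 0–5 (5 = ≥90% kill, 0 = ≤5%).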

[2] = system: directly sowed rice plant; test: Test Example 3: effect on crop by foliage application, Wagner pot (symbol b); conditions: application herbicide amount 320 g/ha; for b (directly sowed rice plant) effect on crop grade: Table 24
Procedure, shortened: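 Steps: fill a 1/10000-are Wagner pot with alluvial soil; add water and mix to submerge at 0.1–0.5 cm depth; sow rice plus Echinochloa crus-galli var. crus-galli, Leptochloa chinensis and Cyperus difformis; grow in a 25–30 °C greenhouse.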

[3] = system: Digitaria ciliaris; test: Test Example 4: herbicidal effect by soil treatment (symbol F); conditions: for Herbicidal effect grade, F: Digitaria ciliaris: application herbicide amount 320 g/ha
Procedure, shortened: (§1)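 Seeds were sown in sterilized diluvial soil, covered with about 1.5 cm of soil, and the soil surface was sprayed with a water-diluted emulsion of the compound at a predetermined rate. Plants grew in a greenhouse at 25° C. to 30° C.; effects were scored visually 3 weeks after application.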

[4] = system: Echinochloa crus-galli var. crus-galli; test: Test Example 4: herbicidal effect by soil treatment (symbol H); conditions: for Herbicidal effect grade, H: Echinochloa crus-galli var. crus-galli: application herbicide amount 320 g/ha
Procedure, shortened: as §1

[5] = system: Avena fatua; test: Test Example 4: herbicidal effect by soil treatment (symbol I); conditions: for Herbicidal effect grade, I: Avena fatua: application herbicide amount 320 g/ha
Procedure, shortened: as §1

[6] = system: Lolium multiflorum Lam.; test: Test Example 4: herbicidal effect by soil treatment (symbol K); conditions: for Herbicidal effect grade, K: Lolium multiflorum Lam.: application herbicide amount 320 g/ha
Procedure, shortened: as §1

[7] = system: rice; test: Test Example 4: effect on crop by soil treatment (symbol b); conditions: for Effect on crop grade, b: directly sowed rice plant: application herbicide amount 320 g/ha
Procedure, shortened: (§2)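 Plants grew in a 25° C. to 30° C. greenhouse after spot-sowing of seeds, including beet, rapeseed, wheat and rice, into sterilized diluvial soil under roughly 1.5 cm of cover soil.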

[8] = system: rapeseed; test: Test Example 4: effect on crop by soil treatment (symbol g); conditions: for Effect on crop grade, g: rapeseed: application herbicide amount 320 g/ha
Procedure, shortened: as §2

[9] = system: Digitaria ciliaris; test: Test Example 5: herbicidal effect by foliage application, plastic box (symbol F); conditions: 320 g/ha, 3 weeks after application
Procedure, shortened: (§3)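 Emulsion formulation, diluted with water to the intended rate, was applied uniformly to leaves by small sprayer. Recipients were 14-day greenhouse-grown seedlings (25° C. to 30° C.). Assessment followed at 3 weeks.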

[10] = system: Avena fatua; test: Test Example 5: herbicidal effect by foliage application, plastic box (symbol I); conditions: 320 g/ha, 3 weeks after application
Procedure, shortened: as §3

[11] = system: Chenopodium album; test: Test Example 5: herbicidal effect by foliage application, plastic box (symbol O); conditions: 320 g/ha, 3 weeks after application
Procedure, shortened: as §3

[12] = system: Stellaria media; test: Test Example 5: herbicidal effect by foliage application, plastic box (symbol P); conditions: 320 g/ha, 3 weeks after application
Procedure, shortened: as §3

[13] = system: Veronica persica; test: Test Example 5: herbicidal effect by foliage application, plastic box (symbol R); conditions: 320 g/ha, 3 weeks after application
Procedure, shortened: as §3

[14] = system: corn; test: Test Example 5: effect on crop by foliage application, plastic box (symbol c); conditions: 320 g/ha, 3 weeks after application
Procedure, shortened: (§4)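 Box culture: sterile diluvial soil, seeds spot-sown, ~1.5 cm cover, raised under glass at 25–30° C.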

[15] = system: wheat; test: Test Example 5: effect on crop by foliage application, plastic box (symbol e); conditions: 320 g/ha, 3 weeks after application
Procedure, shortened: as §4

[16] = system: rapeseed; test: Test Example 5: effect on crop by foliage application, plastic box (symbol g); conditions: 320 g/ha, 3 weeks after application
Procedure, shortened: as §4

SMILES | B (Scirpus juncoides) herbicidal effect grade [1] | b (directly sowed rice plant) effect on crop grade [2] | Herbicidal effect grade, F: Digitaria ciliaris [3] | Herbicidal effect grade, H: Echinochloa crus-galli var. crus-galli [4] | Herbicidal effect grade, I: Avena fatua [5] | Herbicidal effect grade, K: Lolium multiflorum Lam. [6] | Effect on crop grade, b: directly sowed rice plant [7] | Effect on crop grade, g: rapeseed [8] | F: Digitaria ciliaris, herbicidal effect grade [9] | I: Avena fatua, herbicidal effect grade [10] | O: Chenopodium album, herbicidal effect grade [11] | P: Stellaria media, herbicidal effect grade [12] | R: Veronica persica, herbicidal effect grade [13] | c: corn, effect on crop grade [14] | e: wheat, effect on crop grade [15] | g: rapeseed, effect on crop grade [16] | further results
COCCON=C(C)CC1CC(O)=C(c2c(C)cc(-n3cc(Cl)cn3)cc2C)C1=O (centres unmarked) [9-016] | 5 (Herbicidal ratio of 90% or more (almost completely withered)) | 5 (Herbicidal ratio of 90% or more (almost completely withered)) | 5 (Herbicidal ratio of 90% or more (almost completely withered)) | 5 (Herbicidal ratio of 90% or more (almost completely withered)) | 2 (Herbicidal ratio of 20% or higher and lower than 40%) | 5 (Herbicidal ratio of 90% or more (almost completely withered)) | 5 (Herbicidal ratio of 90% or more (almost completely withered)) | 0 (Herbicidal ratio of 5% or lower (almost no effect)) | 5 (Herbicidal ratio of 90% or more (almost completely withered)) | 5 (Herbicidal ratio of 90% or more (almost completely withered)) | 2 (Herbicidal ratio of 20% or higher and lower than 40%) | 3 (Herbicidal ratio of 40% or higher and lower than 70%) | 1 (Herbicidal ratio of 5% or higher and lower than 20%) | 5 (Herbicidal ratio of 90% or more (almost completely withered)) | 3 (Herbicidal ratio of 40% or higher and lower than 70%) | 3 (Herbicidal ratio of 40% or higher and lower than 70%) | –
COCCON=C(CC1CC(O)=C(c2c(C)cc(Br)cc2C)C1=O)C1CC1 (centres unmarked) [9-019] | 0 (Herbicidal ratio of 5% or lower (almost no effect)) | 5 (Herbicidal ratio of 90% or more (almost completely withered)) | 0 (Herbicidal ratio of 5% or lower (almost no effect)) | 0 (Herbicidal ratio of 5% or lower (almost no effect)) | 0 (Herbicidal ratio of 5% or lower (almost no effect)) | 3 (Herbicidal ratio of 40% or higher and lower than 70%) | 5 (Herbicidal ratio of 90% or more (almost completely withered)) | 0 (Herbicidal ratio of 5% or lower (almost no effect)) | 4 (Herbicidal ratio of 70% or higher and lower than 90%) | 4 (Herbicidal ratio of 70% or higher and lower than 90%) | 0 (Herbicidal ratio of 5% or lower (almost no effect)) | 0 (Herbicidal ratio of 5% or lower (almost no effect)) | 0 (Herbicidal ratio of 5% or lower (almost no effect)) | 5 (Herbicidal ratio of 90% or more (almost completely withered)) | 0 (Herbicidal ratio of 5% or lower (almost no effect)) | 1 (Herbicidal ratio of 5% or higher and lower than 20%) | –
COCCON=C(CC1CC(O)=C(c2c(C)cc(-n3cc(Cl)cn3)cc2C)C1=O)C1CC1 (centres unmarked) [9-020] | 4 (Herbicidal ratio of 70% or higher and lower than 90%) | 5 (Herbicidal ratio of 90% or more (almost completely withered)) | 4 (Herbicidal ratio of 70% or higher and lower than 90%) | 0 (Herbicidal ratio of 5% or lower (almost no effect)) | 0 (Herbicidal ratio of 5% or lower (almost no effect)) | 5 (Herbicidal ratio of 90% or more (almost completely withered)) | 3 (Herbicidal ratio of 40% or higher and lower than 70%) | 0 (Herbicidal ratio of 5% or lower (almost no effect)) | 5 (Herbicidal ratio of 90% or more (almost completely withered)) | 5 (Herbicidal ratio of 90% or more (almost completely withered)) | 3 (Herbicidal ratio of 40% or higher and lower than 70%) | 3 (Herbicidal ratio of 40% or higher and lower than 70%) | 3 (Herbicidal ratio of 40% or higher and lower than 70%) | 5 (Herbicidal ratio of 90% or more (almost completely withered)) | 2 (Herbicidal ratio of 20% or higher and lower than 40%) | 4 (Herbicidal ratio of 70% or higher and lower than 90%) | –
CC(CC1CC(O)=C(c2c(C)cc(C)cc2C)C1=O)=NOCC#N (centres unmarked) [1-102] | – | – | – | – | – | – | – | – | – | – | – | – | – | – | – | – | Herbicidal effect grade, B: Scirpus juncoides [1]: 3 (Herbicidal ratio of 40% or higher and lower than 70%); effect on crop b (directly sowed rice plant), grade 0-5 [2]: 5 (Herbicidal ratio of 90% or more (almost completely withered)); F: Digitaria ciliaris, herbicidal effect grade ([3]; 320 g/ha): 4 (Herbicidal ratio of 70% or higher and lower than 90%); H: Echinochloa crus-galli var. crus-galli, herbicidal effect grade ([4]; 320 g/ha): 5 (Herbicidal ratio of 90% or more (almost completely withered)); I: Avena fatua, herbicidal effect grade ([5]; 320 g/ha): 0 (Herbicidal ratio of 5% or lower (almost no effect)); K: Lolium multiflorum Lam., herbicidal effect grade ([6]; 320 g/ha): 5 (Herbicidal ratio of 90% or more (almost completely withered)); b: directly sowed rice plant, effect grade on crop ([7]; 320 g/ha): 5 (Herbicidal ratio of 90% or more (almost completely withered)); g: rapeseed, effect grade on crop ([8]; 320 g/ha): 0 (Herbicidal ratio of 5% or lower (almost no effect)); F: Digitaria ciliaris, herbicidal effect (criteria 0-5) [9]: 5 (Herbicidal ratio of 90% or more (almost completely withered)); I: Avena fatua, herbicidal effect (criteria 0-5) [10]: 5 (Herbicidal ratio of 90% or more (almost completely withered)); O: Chenopodium album, herbicidal effect (criteria 0-5) [11]: 3 (Herbicidal ratio of 40% or higher and lower than 70%); P: Stellaria media, herbicidal effect (criteria 0-5) [12]: 0 (Herbicidal ratio of 5% or lower (almost no effect)); R: Veronica persica, herbicidal effect (criteria 0-5) [13]: 2 (Herbicidal ratio of 20% or higher and lower than 40%); c: corn, effect on crop (criteria 0-5) [14]: 5 (Herbicidal ratio of 90% or more (almost completely withered)); e: wheat, effect on crop (criteria 0-5) [15]: 4 (Herbicidal ratio of 70% or higher and lower than 90%); g: rapeseed, effect on crop (criteria 0-5) [16]: 2 (Herbicidal ratio of 20% or higher and lower than 40%)
CC#Cc1cc(C)c(C2=C(OC(=O)COc3ccccc3)CC(CC(C)=NOCC(F)(F)F)C2=O)c(C)c1 (centres unmarked) [9-013] | 5 (Herbicidal ratio of 90% or more (almost completely withered)) | 5 (Herbicidal ratio of 90% or more (almost completely withered)) | 5 (Herbicidal ratio of 90% or more (almost completely withered)) | 5 (Herbicidal ratio of 90% or more (almost completely withered)) | 5 (Herbicidal ratio of 90% or more (almost completely withered)) | 5 (Herbicidal ratio of 90% or more (almost completely withered)) | 5 (Herbicidal ratio of 90% or more (almost completely withered)) | 4 (Herbicidal ratio of 70% or higher and lower than 90%) | 5 (Herbicidal ratio of 90% or more (almost completely withered)) | 5 (Herbicidal ratio of 90% or more (almost completely withered)) | 3 (Herbicidal ratio of 40% or higher and lower than 70%) | 2 (Herbicidal ratio of 20% or higher and lower than 40%) | 4 (Herbicidal ratio of 70% or higher and lower than 90%) | 5 (Herbicidal ratio of 90% or more (almost completely withered)) | 4 (Herbicidal ratio of 70% or higher and lower than 90%) | 4 (Herbicidal ratio of 70% or higher and lower than 90%) | –
